The values that follow come from publication PMC6934184, “Selective DNA-PKcs inhibition extends the therapeutic index of localized radiotherapy and chemotherapy” (The Journal of Clinical Investigation, 2019).

The experiment has as its target T1, KIT T670E (Homo sapiens, UniProt P10721, T670E).
T1 construct: purchased Thermo Fisher Scientific (Life Technologies) SelectScreen
The experiment in a line: SelectScreen LanthaScreen. It is filed as binding. The note with it: read-out: % displacement. Summed up:
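NU5455 was profiled across the SelectScreen Broad panel of kinase activity and binding assays. Z'LYTE reactions such as CSF1R ran at apparent Km ATP, while the Adapta CAMK1 assay used ATP listed as 10. Values are given as percent.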

T1 sequence (P10721 26-976 T670E): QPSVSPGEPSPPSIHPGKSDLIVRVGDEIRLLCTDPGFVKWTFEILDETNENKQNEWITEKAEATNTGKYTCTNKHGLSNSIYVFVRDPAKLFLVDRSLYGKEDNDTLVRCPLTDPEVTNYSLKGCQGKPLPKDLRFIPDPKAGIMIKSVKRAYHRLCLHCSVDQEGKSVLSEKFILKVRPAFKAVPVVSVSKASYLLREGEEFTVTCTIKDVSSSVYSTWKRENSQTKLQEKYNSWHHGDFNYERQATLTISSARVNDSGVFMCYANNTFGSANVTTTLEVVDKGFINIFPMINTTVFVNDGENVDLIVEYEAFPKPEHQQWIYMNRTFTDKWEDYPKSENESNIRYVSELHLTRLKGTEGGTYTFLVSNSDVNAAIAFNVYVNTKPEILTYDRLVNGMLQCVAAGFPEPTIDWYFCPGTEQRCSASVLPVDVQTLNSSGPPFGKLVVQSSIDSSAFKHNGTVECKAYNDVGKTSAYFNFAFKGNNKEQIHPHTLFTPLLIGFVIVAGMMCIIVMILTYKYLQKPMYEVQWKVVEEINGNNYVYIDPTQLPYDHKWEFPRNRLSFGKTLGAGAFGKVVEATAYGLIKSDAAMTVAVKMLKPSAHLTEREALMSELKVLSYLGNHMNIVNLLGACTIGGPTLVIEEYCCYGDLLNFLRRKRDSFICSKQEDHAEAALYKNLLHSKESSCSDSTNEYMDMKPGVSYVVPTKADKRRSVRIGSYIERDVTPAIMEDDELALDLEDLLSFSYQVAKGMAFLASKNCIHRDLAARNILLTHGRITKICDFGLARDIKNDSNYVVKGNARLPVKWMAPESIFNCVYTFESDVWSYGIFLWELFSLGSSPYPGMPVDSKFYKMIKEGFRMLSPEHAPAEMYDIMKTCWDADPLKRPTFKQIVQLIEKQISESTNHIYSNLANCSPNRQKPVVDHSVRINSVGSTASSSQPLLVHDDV

For the molecule `CN(C(=O)CN1CCOCC1)c1ccc2sc3c(-c4cccc5c(=O)cc(N6CC7CCC(C6)O7)oc45)cccc3c2c1` [NU5455], the inhibition at 1 µM is -2.8%.
